According to ChEMBL document CHEMBL3044772, “QSAR modeling of some substituted benzimidazole as Angotensin II AT1 receptor antagonist” (Med Chem Res, 2010):

These compounds were tested against T1, Type-1 angiotensin II receptor (Bos taurus, UniProt P25104) (assay: Displacement of [125I]angiotensin 2 from type-1 angiotensin 2 receptor in Bos taurus (bovine) adrenal cortical membrane). Settings: read-out: IC50.
T1 sequence (P25104 whole entry): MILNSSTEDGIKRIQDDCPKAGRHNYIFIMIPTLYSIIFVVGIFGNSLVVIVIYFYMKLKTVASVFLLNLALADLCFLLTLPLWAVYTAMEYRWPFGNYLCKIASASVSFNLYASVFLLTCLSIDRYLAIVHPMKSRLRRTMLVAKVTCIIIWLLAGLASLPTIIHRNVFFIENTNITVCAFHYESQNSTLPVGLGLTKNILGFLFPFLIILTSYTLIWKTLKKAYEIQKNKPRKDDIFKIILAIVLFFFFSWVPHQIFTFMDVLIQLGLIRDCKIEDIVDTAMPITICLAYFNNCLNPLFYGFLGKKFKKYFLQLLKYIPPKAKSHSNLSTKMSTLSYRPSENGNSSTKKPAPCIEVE

IC50 [nM] | Compound
910 | CCCCc1nc2ccc(C)c(C(=O)OCC)c2n1Cc1ccc(-c2ccccc2-c2nnn[nH]2)cc1
600 | CCCCc1nc2cccc(COC)c2n1Cc1ccc(-c2ccccc2-c2nn[nH]n2)cc1
2400 | CCCCc1nc2cccc(CN(C)C)c2n1Cc1ccc(-c2ccccc2-c2nn[nH]n2)cc1
340 | CCCCc1nc2ccc(C)c(C(=O)O)c2n1Cc1ccc(-c2ccccc2-c2nn[nH]n2)cc1
320 | CCCCc1nc2cccc(C(=O)OC)c2n1Cc1ccc(-c2ccccc2-c2nn[nH]n2)cc1
740 | CCCCc1nc2cc(C(=O)OC)ccc2n1Cc1ccc(-c2ccccc2-c2nn[nH]n2)cc1
1100 | CCCCc1nc2ccc(OC)cc2n1Cc1ccc(-c2ccccc2-c2nn[nH]n2)cc1
1500 | CCCCc1nc2cc(Cl)ccc2n1Cc1ccc(-c2ccccc2-c2nn[nH]n2)cc1
2600 | CCCCc1nc2cccc(CC(=O)O)c2n1Cc1ccc(-c2ccccc2-c2nn[nH]n2)cc1
250 | CCCCc1nc2cccc(CC(=O)OCC)c2n1Cc1ccc(-c2ccccc2-c2nn[nH]n2)cc1
440 | CCCCc1nc2cc(Cl)cc(C(=O)OC)c2n1Cc1ccc(-c2ccccc2-c2nn[nH]n2)cc1
1400 | CCCCc1nc2cccc(C(=O)OCC)c2n1Cc1ccc(-c2ccccc2-c2nn[nH]n2)cc1
660 | CCCCc1nc2cccc(C(=O)O)c2n1Cc1ccc(-c2ccccc2C(=O)O)cc1
3100 | CCCCc1nc2ccc(Cl)cc2n1Cc1ccc(-c2ccccc2-c2nn[nH]n2)cc1
1200 | CCCCOC(=O)c1cccc2nc(CCCC)n(Cc3ccc(-c4ccccc4-c4nn[nH]n4)cc3)c12
330 | CCCCc1nc2cccc(C)c2n1Cc1ccc(-c2ccccc2-c2nn[nH]n2)cc1
5500 | CCCCc1nc2cc(C(=O)O)ccc2n1Cc1ccc(-c2ccccc2-c2nn[nH]n2)cc1
540 | CCCCc1nc2cccc(C(=O)NC(C)C)c2n1Cc1ccc(-c2ccccc2-c2nn[nH]n2)cc1
910 | CCCCc1nc2cc(OC)ccc2n1Cc1ccc(-c2ccccc2-c2nn[nH]n2)cc1
1100 | CCCCc1nc2cccc(O)c2n1Cc1ccc(-c2ccccc2-c2nn[nH]n2)cc1
440 | CCCCc1nc2ccc(C(=O)OC)cc2n1Cc1ccc(-c2ccccc2-c2nn[nH]n2)cc1
2800 | CCCCc1nc2cccc(OC)c2n1Cc1ccc(-c2ccccc2-c2nn[nH]n2)cc1
7200 | CCCCc1nc2c(C(=O)OC)cccc2n1Cc1ccc(-c2ccccc2-c2nn[nH]n2)cc1
3400 | CCCCc1nc2cccc(C(=O)O)c2n1Cc1ccc(-c2ccccc2-c2nnnn2C)cc1
450 | CCCCc1nc2cccc(CO)c2n1Cc1ccc(-c2ccccc2-c2nn[nH]n2)cc1
9000 | CCCCc1nc2ccc(C(=O)O)cc2n1Cc1ccc(-c2ccccc2-c2nn[nH]n2)cc1
1300 | CCCCc1nc2cc(C)cc(C(=O)O)c2n1Cc1ccc(-c2ccccc2-c2nn[nH]n2)cc1
870 | CCCCc1nc2cc(C)cc(C(=O)OC)c2n1Cc1ccc(-c2ccccc2-c2nn[nH]n2)cc1
1100 | CCCCc1nc2ccccc2n1Cc1ccc(-c2ccccc2C(=O)O)cc1
900 | CCCCc1nc2ccccc2n1Cc1ccc(-c2ccccc2-c2nn[nH]n2)cc1

Same assay, conditions: read-out: pIC50 (converted)

IC50 [nM] | Compound
328 | CCCCc1nc2ccc(C)c(C(=O)O)c2n1Cc1ccc(-c2ccccc2-c2nn[nH]n2)cc1
2820 | CCCCc1nc2cccc(CC(=O)O)c2n1Cc1ccc(-c2ccccc2-c2nn[nH]n2)cc1
1300 | CCCCOC(=O)c1cccc2nc(CCCC)n(Cc3ccc(-c4ccccc4-c4nn[nH]n4)cc3)c12
5620 | CCCCc1nc2cc(C(=O)O)ccc2n1Cc1ccc(-c2ccccc2-c2nn[nH]n2)cc1
110 | CCCCc1nc2ccccc2n1Cc1ccc(-c2ccccc2C(=O)O)cc1
